Experimental findings from patent US12258355B2, “Probes for imaging huntingtin protein” (CHDI Foundation, Inc., priority 2014, dated 2025) are described below.

The target of the assay is T1, Q46 protein aggregates (Homo sapiens, UniProt P42858).
T1 construct: fused on or other part: GST at the N-terminus, cut off with thrombin before the test to start aggregation; The wells held aggregated Q46 without GST
Description: Q46 radioligand binding assay (RBA). Particulars: 10 nM ligand [3H3]MK-3328. The method, boiled down: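 Aggregates from thrombin-cleaved GST-Q46 (16 h, 37° C) at 5 μM monomer-equivalent were pre-incubated 20 min at room temperature with compound (1 μM to 30 pM) in 150 mM NaCl, 50 mM Tris pH 8.0, then 60 min at 37° C with 10 nM [^3H3]MK-3328. Bound radioactivity was filtered and counted; IC50 came from a four-parameter global fit normalized to vehicle and 3 μM unlabelled MK-3328.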

One may read the IC50 as the midpoint of a concentration-inhibition curve.

T1 sequence (P42858 with tags, fused parts or gaps with the stated changes, form open): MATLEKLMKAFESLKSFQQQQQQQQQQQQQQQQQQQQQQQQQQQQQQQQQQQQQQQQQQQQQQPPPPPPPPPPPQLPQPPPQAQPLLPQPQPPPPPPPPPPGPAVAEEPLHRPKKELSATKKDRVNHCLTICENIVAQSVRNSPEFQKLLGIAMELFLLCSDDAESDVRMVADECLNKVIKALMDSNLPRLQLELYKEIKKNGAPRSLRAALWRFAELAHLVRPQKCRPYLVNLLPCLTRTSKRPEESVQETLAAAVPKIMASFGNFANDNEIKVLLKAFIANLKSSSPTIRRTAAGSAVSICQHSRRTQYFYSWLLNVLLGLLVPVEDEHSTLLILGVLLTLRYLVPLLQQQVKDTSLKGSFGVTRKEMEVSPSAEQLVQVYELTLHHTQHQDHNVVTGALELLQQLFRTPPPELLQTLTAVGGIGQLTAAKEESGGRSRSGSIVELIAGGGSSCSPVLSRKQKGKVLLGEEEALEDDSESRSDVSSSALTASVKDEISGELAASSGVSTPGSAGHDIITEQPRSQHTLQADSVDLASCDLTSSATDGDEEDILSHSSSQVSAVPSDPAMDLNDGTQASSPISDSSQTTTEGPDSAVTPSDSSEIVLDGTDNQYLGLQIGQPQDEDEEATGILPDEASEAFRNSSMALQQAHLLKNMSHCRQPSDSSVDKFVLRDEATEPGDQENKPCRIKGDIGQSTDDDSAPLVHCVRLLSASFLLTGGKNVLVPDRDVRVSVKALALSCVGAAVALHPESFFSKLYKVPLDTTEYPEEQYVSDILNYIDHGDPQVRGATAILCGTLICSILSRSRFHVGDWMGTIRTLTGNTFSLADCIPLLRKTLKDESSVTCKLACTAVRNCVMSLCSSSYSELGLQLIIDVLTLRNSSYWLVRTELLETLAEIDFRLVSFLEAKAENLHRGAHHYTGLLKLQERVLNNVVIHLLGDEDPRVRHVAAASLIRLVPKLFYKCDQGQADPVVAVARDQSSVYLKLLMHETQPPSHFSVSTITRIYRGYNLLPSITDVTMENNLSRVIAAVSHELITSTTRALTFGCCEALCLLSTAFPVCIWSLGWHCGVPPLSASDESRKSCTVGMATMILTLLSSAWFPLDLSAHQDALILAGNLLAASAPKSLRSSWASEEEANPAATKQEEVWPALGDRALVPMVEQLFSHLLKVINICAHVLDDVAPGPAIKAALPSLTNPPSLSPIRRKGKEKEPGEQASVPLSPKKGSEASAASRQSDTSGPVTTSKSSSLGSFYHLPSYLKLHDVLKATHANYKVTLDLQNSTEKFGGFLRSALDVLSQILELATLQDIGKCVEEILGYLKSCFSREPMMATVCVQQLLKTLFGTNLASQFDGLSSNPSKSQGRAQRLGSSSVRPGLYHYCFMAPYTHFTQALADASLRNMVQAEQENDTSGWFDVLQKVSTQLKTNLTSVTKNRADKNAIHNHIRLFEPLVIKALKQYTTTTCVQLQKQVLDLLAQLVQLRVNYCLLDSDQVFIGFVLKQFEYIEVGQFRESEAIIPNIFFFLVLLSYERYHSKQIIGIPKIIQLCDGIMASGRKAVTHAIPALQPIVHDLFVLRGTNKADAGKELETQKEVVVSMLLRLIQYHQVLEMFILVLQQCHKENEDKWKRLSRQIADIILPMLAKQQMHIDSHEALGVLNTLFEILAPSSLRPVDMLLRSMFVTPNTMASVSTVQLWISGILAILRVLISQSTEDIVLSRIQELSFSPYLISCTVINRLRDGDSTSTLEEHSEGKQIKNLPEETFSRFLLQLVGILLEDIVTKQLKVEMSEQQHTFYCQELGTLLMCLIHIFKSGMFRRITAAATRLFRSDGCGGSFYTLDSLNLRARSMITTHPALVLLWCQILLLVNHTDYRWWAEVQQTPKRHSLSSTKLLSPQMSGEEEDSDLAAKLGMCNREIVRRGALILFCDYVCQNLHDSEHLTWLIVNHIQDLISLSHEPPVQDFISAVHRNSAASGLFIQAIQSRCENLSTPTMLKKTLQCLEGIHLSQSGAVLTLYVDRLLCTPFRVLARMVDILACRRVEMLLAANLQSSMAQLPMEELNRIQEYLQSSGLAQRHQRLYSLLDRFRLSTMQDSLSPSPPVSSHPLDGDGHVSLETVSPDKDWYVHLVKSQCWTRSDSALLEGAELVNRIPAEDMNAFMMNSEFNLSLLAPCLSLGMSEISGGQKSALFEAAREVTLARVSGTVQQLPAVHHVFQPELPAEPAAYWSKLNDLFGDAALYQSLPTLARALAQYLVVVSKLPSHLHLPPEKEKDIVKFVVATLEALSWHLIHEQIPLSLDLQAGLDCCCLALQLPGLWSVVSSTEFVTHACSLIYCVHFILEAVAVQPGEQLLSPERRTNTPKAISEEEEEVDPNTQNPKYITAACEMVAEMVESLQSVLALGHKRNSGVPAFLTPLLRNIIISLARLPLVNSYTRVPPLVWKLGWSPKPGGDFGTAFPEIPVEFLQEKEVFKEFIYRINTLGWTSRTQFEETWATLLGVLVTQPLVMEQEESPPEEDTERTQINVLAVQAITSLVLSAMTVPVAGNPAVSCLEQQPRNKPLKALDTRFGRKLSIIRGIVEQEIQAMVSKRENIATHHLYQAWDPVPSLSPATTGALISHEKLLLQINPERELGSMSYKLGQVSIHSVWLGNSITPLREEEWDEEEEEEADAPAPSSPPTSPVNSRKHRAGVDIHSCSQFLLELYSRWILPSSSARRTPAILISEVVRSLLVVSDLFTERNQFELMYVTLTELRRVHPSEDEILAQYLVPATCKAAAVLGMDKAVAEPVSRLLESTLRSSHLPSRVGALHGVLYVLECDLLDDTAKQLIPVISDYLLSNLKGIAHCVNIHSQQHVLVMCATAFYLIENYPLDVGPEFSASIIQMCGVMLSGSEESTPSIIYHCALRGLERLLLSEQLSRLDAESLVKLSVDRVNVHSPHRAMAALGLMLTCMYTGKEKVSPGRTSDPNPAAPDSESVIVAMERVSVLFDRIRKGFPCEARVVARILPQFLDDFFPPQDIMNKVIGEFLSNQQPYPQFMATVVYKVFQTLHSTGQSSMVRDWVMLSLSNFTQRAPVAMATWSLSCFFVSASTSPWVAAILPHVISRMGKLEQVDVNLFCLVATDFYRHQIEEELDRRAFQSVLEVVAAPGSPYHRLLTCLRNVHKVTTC

On to `COc1ccc(COc2ccc3oc(-c4cncc(C)c4)nc3c2)nc1` [5-[(5-methoxypyridin-2-yl)methoxy]-2-(5-methylpyridin-3-yl)-1,3-benzoxazole], for which the IC50 is under 100 nM.

In turn, `COc1ccc(COc2ccc3oc(N4CCNCC4)nc3c2)nc1` [5-[(5-methoxypyridin-2-yl)methoxy]-2-(piperazin-1-yl)-1,3-benzoxazole] came in with an IC50 of over 50 nM.

Take `COc1ccc(COc2ccc3oc(-c4cnccn4)nc3c2)nc1` [5-[(5-methoxypyridin-2-yl)methoxy]-2-(pyrazin-2-yl)-1,3-benzoxazole]: the half-inhibitory concentration (IC50) was under 100 nM.

Turning to `COc1ccc(COc2ccc3oc(-c4cccnn4)nc3c2)nc1` [5-[(5-methoxypyridin-2-yl)methoxy]-2-(pyridazin-3-yl)-1,3-benzoxazole], the IC50 is under 100 nM.

For `COc1ccc(COc2ccc3oc(-c4ccnnc4)nc3c2)nc1` [5-[(5-methoxypyridin-2-yl)methoxy]-2-(pyridazin-4-yl)-1,3-benzoxazole], the IC50 was under 100 nM.

Molecule `COc1ccc(COc2ccc3oc(-c4cccnc4)nc3c2)nc1` [5-[(5-methoxypyridin-2-yl)methoxy]-2-(pyridin-3-yl)-1,3-benzoxazole] displayed a half-inhibitory concentration (IC50) of under 100 nM.

Take `COc1ccc(COc2ccc3oc(-c4ccncc4)nc3c2)nc1` [5-[(5-methoxypyridin-2-yl)methoxy]-2-(pyridin-4-yl)-1,3-benzoxazole]: the IC50 is under 100 nM.

As for `COc1ccc(COc2ccc3oc(-c4ccncn4)nc3c2)nc1` [5-[(5-methoxypyridin-2-yl)methoxy]-2-(pyrimidin-4-yl)-1,3-benzoxazole], the IC50 was under 100 nM.

In turn, `COc1ccc(COc2ccc3oc(-c4ccc(-c5ncccn5)cc4)nc3c2)nc1` [5-[(5-methoxypyridin-2-yl)methoxy]-2-[4-(pyrimidin-2-yl)phenyl]-1,3-benzoxazole] had an IC50 of under 100 nM.

`COc1ccc(COc2ccc3oc(-c4ccc(C(F)(F)F)nc4)nc3c2)nc1` [5-[(5-methoxypyridin-2-yl)methoxy]-2-[6-(trifluoromethyl)pyridin-3-yl]-1,3-benzoxazole] gave an IC50 of under 100 nM.

`COc1ccc(COc2ccc3oc(N4Cc5cccnc5C4)nc3c2)nc1` [5-[(5-methoxypyridin-2-yl)methoxy]-2-{5H,6H,7H-pyrrolo[3,4-b]pyridin-6-yl}-1,3-benzoxazole]: the IC50 was under 100 nM.

Turning to `COc1ccc(COc2cnc3oc(-c4cccnc4)nc3c2)[n+]([O-])c1` [5-methoxy-2-({[2-(pyridin-3-yl)-[1,3]oxazolo[5,4-b]pyridin-6-yl]oxy}methyl)pyridin-1-ium-1-olate], the IC50 was under 100 nM.

Consider `COc1cnc(COc2cnc3oc(-c4cccnc4)nc3c2)nc1` [5-methoxy-2-({[2-(pyridin-3-yl)-[1,3]oxazolo[5,4-b]pyridin-6-yl]oxy}methyl)pyrimidine], for which the IC50 is under 100 nM.

Take `COc1ccc2c(c1)CN(c1ccc3oc(-c4cccnc4)nc3c1)C2=O` [5-methoxy-2-[2-(pyridin-3-yl)-1,3-benzoxazol-5-yl]-2,3-dihydro-1H-isoindol-1-one]: the IC50 was under 100 nM.

Take `COc1ccc2c(c1)CN(c1cnc3oc(-c4cccnc4)nc3c1)C2=O` [5-methoxy-2-[2-(pyridin-3-yl)-[1,3]oxazolo[5,4-b]pyridin-6-yl]-2,3-dihydro-1H-isoindol-1-one]: the IC50 was under 100 nM.

Regarding `COc1ccc(C(=O)Nc2ccc3oc(-c4ccc(=O)n(C)n4)nc3c2)nc1` [5-methoxy-N-[2-(1-methyl-6-oxo-1,6-dihydropyridazin-3-yl)-1,3-benzoxazol-5-yl]pyridine-2-carboxamide], the concentration for half-maximal inhibition (IC50) is under 100 nM.

On to `COc1cncc(C(=O)Nc2ccc3oc(-c4ccc(=O)n(C)n4)nc3c2)c1` [5-methoxy-N-[2-(1-methyl-6-oxo-1,6-dihydropyridazin-3-yl)-1,3-benzoxazol-5-yl]pyridine-3-carboxamide], for which the IC50 was under 100 nM.

On to `COc1cnc(C(=O)Nc2ccc3oc(-c4cccc(C)c4)nc3c2)cn1` [5-methoxy-N-[2-(3-methylphenyl)-1,3-benzoxazol-5-yl]pyrazine-2-carboxamide], for which the IC50 was under 100 nM.
